The supplement of paper PMC10307832

Columns and labels:
Experiment in all cases: relative viability (nuclei count vs DMSO), 5 days (fraction); higher = more cells survive
[1] = compound: Cc1ccc(C(=O)Nc2ccc(CN3CCN(C)CC3)c(C(F)(F)F)c2)cc1C#Cc1cnc2cccnn12 [Ponatinib] + Cc1nc(Nc2ncc(C(=O)Nc3c(C)cccc3Cl)s2)cc(N2CCN(CCO)CC2)n1 [Dasatinib] (partner 0.075 µM)
In short: (§1)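 One day after seeding in 1536-well plates, lung cancer cell lines were dosed by pin tool. Dosing was either single-drug or a fixed anchor-drug dose plus five library-drug doses (not always all listed) in √10 steps. After 5 days, nuclei were stained in one fix-and-stain step and counted on 4× images, and relative viability is the nuclei count of treated wells over that of vehicle wells, given as the median of duplicate plates.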

[2] = compound: Cc1ccc(Nc2nccc(N(C)c3ccc4c(C)n(C)nc4c3)n2)cc1S(N)(=O)=O [Pazopanib] + CC(=O)Nc1cccc(-n2c(=O)n(C3CC3)c(=O)c3c(Nc4ccc(I)cc4F)n(C)c(=O)c(C)c32)c1 [Trametinib] (partner 0.02 µM)
In short: as §1

[3] = compound: Cc1ccc(C(=O)Nc2ccc(CN3CCN(C)CC3)c(C(F)(F)F)c2)cc1C#Cc1cnc2cccnn12 [Ponatinib] + CC(C)C[C@H](NC(=O)[C@H](Cc1ccccc1)NC(=O)c1cnccn1)B(O)O [Bortezomib] (partner 0.002 µM)
In short: as §1

[4] = compound: Cc1ccc(Nc2nccc(N(C)c3ccc4c(C)n(C)nc4c3)n2)cc1S(N)(=O)=O [Pazopanib] + COc1cc2c(Oc3ccc(NC(=O)C4(C(=O)Nc5ccc(F)cc5)CC4)cc3F)ccnc2cc1OCCCN1CCOCC1 [Foretinib] (partner 0.25 µM)
In short: as §1

Cell Line: HCC-78
- relative viability ([1]; first compound 0.002 µM): 0.33
- relative viability ([1]; first compound 0.006325 µM): 0.35
- relative viability ([1]; first compound 0.06325 µM): 0.296
- relative viability ([1]; first compound 0.2 µM): 0.382
- relative viability ([2]; first compound 0.03162 µM): 0.864
- relative viability ([2]; first compound 0.1 µM): 0.721
- relative viability ([2]; first compound 0.3162 µM): 0.804
- relative viability ([2]; first compound 1 µM): 1.06
- relative viability ([3]; first compound 0.002 µM): 0.476
- relative viability ([3]; first compound 0.006325 µM): 0.48
- relative viability ([3]; first compound 0.06325 µM): 0.62
- relative viability ([3]; first compound 0.2 µM): 0.421
- relative viability ([4]; first compound 0.01 µM): 0.523
- relative viability ([4]; first compound 0.03162 µM): 0.553
- relative viability ([4]; first compound 0.1 µM): 0.524
- relative viability ([4]; first compound 0.3162 µM): 0.638
- relative viability ([4]; first compound 1 µM): 0.701

Cell Line: IA-LM
- relative viability ([3]; first compound 0.002 µM): 0.695
- relative viability ([3]; first compound 0.006325 µM): 0.623
- relative viability ([3]; first compound 0.06325 µM): 0.785
- relative viability ([3]; first compound 0.2 µM): 0.79
- relative viability ([4]; first compound 0.01 µM): 1.17
- relative viability ([4]; first compound 0.03162 µM): 1.07
- relative viability ([4]; first compound 0.1 µM): 1.13
- relative viability ([4]; first compound 0.3162 µM): 1.04
- relative viability ([4]; first compound 1 µM): 1.02

Cell Line: NCI-H441
- relative viability ([1]; first compound 0.002 µM): 0.72
- relative viability ([1]; first compound 0.006325 µM): 0.53
- relative viability ([1]; first compound 0.06325 µM): 0.539
- relative viability ([1]; first compound 0.2 µM): 0.406
- relative viability ([2]; first compound 0.01 µM): 0.5
- relative viability ([2]; first compound 0.03162 µM): 0.445
- relative viability ([2]; first compound 0.1 µM): 0.474
- relative viability ([2]; first compound 0.3162 µM): 0.563
- relative viability ([2]; first compound 1 µM): 0.734
- relative viability ([3]; first compound 0.002 µM): 0.592
- relative viability ([3]; first compound 0.006325 µM): 0.363
- relative viability ([3]; first compound 0.06325 µM): 0.402
- relative viability ([3]; first compound 0.2 µM): 0.452
- relative viability ([4]; first compound 0.01 µM): 0.974
- relative viability ([4]; first compound 0.03162 µM): 1.14
- relative viability ([4]; first compound 0.1 µM): 0.859
- relative viability ([4]; first compound 0.3162 µM): 1
- relative viability ([4]; first compound 1 µM): 0.857

Cell Line: NCI-H322M
- relative viability ([1]; first compound 0.002 µM): 0.263
- relative viability ([1]; first compound 0.006325 µM): 0.244
- relative viability ([1]; first compound 0.06325 µM): 0.232
- relative viability ([1]; first compound 0.2 µM): 0.253
- relative viability ([2]; first compound 0.01 µM): 0.513
- relative viability ([2]; first compound 0.03162 µM): 0.471
- relative viability ([2]; first compound 0.1 µM): 0.482
- relative viability ([2]; first compound 0.3162 µM): 0.452
- relative viability ([2]; first compound 1 µM): 0.489
- relative viability ([3]; first compound 0.002 µM): 1.19
- relative viability ([3]; first compound 0.006325 µM): 1.27
- relative viability ([3]; first compound 0.06325 µM): 1.44
- relative viability ([3]; first compound 0.2 µM): 1.21
- relative viability ([4]; first compound 0.01 µM): 0.908
- relative viability ([4]; first compound 0.03162 µM): 1.25
- relative viability ([4]; first compound 0.1 µM): 0.921
- relative viability ([4]; first compound 0.3162 µM): 0.966
- relative viability ([4]; first compound 1 µM): 0.93

Cell Line: NCI-H2347
- relative viability ([1]; first compound 0.002 µM): 0.302
- relative viability ([1]; first compound 0.006325 µM): 0.301
- relative viability ([1]; first compound 0.06325 µM): 0.404
- relative viability ([1]; first compound 0.2 µM): 0.362
- relative viability ([2]; first compound 0.01 µM): 0.211
- relative viability ([2]; first compound 0.03162 µM): 0.281
- relative viability ([2]; first compound 0.1 µM): 0.303
- relative viability ([2]; first compound 0.3162 µM): 0.282
- relative viability ([2]; first compound 1 µM): 0.281
- relative viability ([3]; first compound 0.006325 µM): 1.08
- relative viability ([3]; first compound 0.06325 µM): 0.962
- relative viability ([3]; first compound 0.2 µM): 0.938
- relative viability ([4]; first compound 0.1 µM): 0.934
- relative viability ([4]; first compound 0.3162 µM): 1.21
- relative viability ([4]; first compound 1 µM): 0.843

Cell Line: COR-L23
- relative viability ([1]; first compound 0.002 µM): 0.526
- relative viability ([1]; first compound 0.006325 µM): 0.502
- relative viability ([1]; first compound 0.06325 µM): 0.666
- relative viability ([1]; first compound 0.2 µM): 0.433
- relative viability ([2]; first compound 0.01 µM): 0.511
- relative viability ([2]; first compound 0.03162 µM): 0.649
- relative viability ([2]; first compound 0.1 µM): 0.698
- relative viability ([2]; first compound 0.3162 µM): 0.625
- relative viability ([2]; first compound 1 µM): 0.773
- relative viability ([3]; first compound 0.002 µM): 0.862
- relative viability ([3]; first compound 0.006325 µM): 0.875
- relative viability ([3]; first compound 0.06325 µM): 0.818
- relative viability ([3]; first compound 0.2 µM): 0.8
- relative viability ([4]; first compound 0.01 µM): 0.916
- relative viability ([4]; first compound 0.03162 µM): 1.03
- relative viability ([4]; first compound 0.1 µM): 0.922
- relative viability ([4]; first compound 0.3162 µM): 0.986
- relative viability ([4]; first compound 1 µM): 0.989

Cell Line: NCI-H2087
- relative viability ([1]; first compound 0.002 µM): 0.83
- relative viability ([1]; first compound 0.006325 µM): 0.743
- relative viability ([1]; first compound 0.06325 µM): 0.798
- relative viability ([1]; first compound 0.2 µM): 0.525
- relative viability ([2]; first compound 0.01 µM): 0.223
- relative viability ([2]; first compound 0.03162 µM): 0.261
- relative viability ([2]; first compound 0.1 µM): 0.192
- relative viability ([2]; first compound 0.3162 µM): 0.174
- relative viability ([2]; first compound 1 µM): 0.242
- relative viability ([3]; first compound 0.002 µM): 0.57
- relative viability ([3]; first compound 0.006325 µM): 0.566
- relative viability ([3]; first compound 0.06325 µM): 0.74
- relative viability ([3]; first compound 0.2 µM): 0.688
- relative viability ([4]; first compound 0.01 µM): 1.27
- relative viability ([4]; first compound 0.03162 µM): 0.966
- relative viability ([4]; first compound 0.1 µM): 1.03
- relative viability ([4]; first compound 0.3162 µM): 1.13
- relative viability ([4]; first compound 1 µM): 0.796

Cell Line: LC-2-ad
- relative viability ([1]; first compound 0.002 µM): 0.286
- relative viability ([1]; first compound 0.006325 µM): 0.298
- relative viability ([1]; first compound 0.06325 µM): 0.313
- relative viability ([1]; first compound 0.2 µM): 0.256
- relative viability ([2]; first compound 0.01 µM): 0.905
- relative viability ([2]; first compound 0.03162 µM): 0.934
- relative viability ([2]; first compound 0.1 µM): 0.89
- relative viability ([2]; first compound 0.3162 µM): 0.915
- relative viability ([2]; first compound 1 µM): 0.858
- relative viability ([3]; first compound 0.002 µM): 0.964
- relative viability ([3]; first compound 0.006325 µM): 1.01
- relative viability ([3]; first compound 0.06325 µM): 0.911
- relative viability ([3]; first compound 0.2 µM): 0.875
- relative viability ([4]; first compound 0.01 µM): 0.888
- relative viability ([4]; first compound 0.03162 µM): 0.927
- relative viability ([4]; first compound 0.1 µM): 1.05
- relative viability ([4]; first compound 0.3162 µM): 0.967
- relative viability ([4]; first compound 1 µM): 1.04

Cell Line: NCI-H1915
- relative viability ([1]; first compound 0.002 µM): 0.308
- relative viability ([1]; first compound 0.006325 µM): 0.33
- relative viability ([1]; first compound 0.06325 µM): 0.27
- relative viability ([1]; first compound 0.2 µM): 0.267
- relative viability ([2]; first compound 0.01 µM): 0.294
- relative viability ([2]; first compound 0.03162 µM): 0.312
- relative viability ([2]; first compound 0.1 µM): 0.355
- relative viability ([2]; first compound 0.3162 µM): 0.336
- relative viability ([2]; first compound 1 µM): 0.347
- relative viability ([3]; first compound 0.002 µM): 0.849
- relative viability ([3]; first compound 0.006325 µM): 0.975
- relative viability ([3]; first compound 0.06325 µM): 0.923
- relative viability ([3]; first compound 0.2 µM): 0.871
- relative viability ([4]; first compound 0.01 µM): 1.04
- relative viability ([4]; first compound 0.03162 µM): 1.09
- relative viability ([4]; first compound 0.1 µM): 1.1
- relative viability ([4]; first compound 0.3162 µM): 1.06
- relative viability ([4]; first compound 1 µM): 0.983

Cell Line: NCI-H1944
- relative viability ([1]; first compound 0.002 µM): 0.218
- relative viability ([1]; first compound 0.006325 µM): 0.21
- relative viability ([1]; first compound 0.06325 µM): 0.221
- relative viability ([1]; first compound 0.2 µM): 0.202
- relative viability ([2]; first compound 0.01 µM): 0.389
- relative viability ([2]; first compound 0.03162 µM): 0.387
- relative viability ([2]; first compound 0.1 µM): 0.407
- relative viability ([2]; first compound 0.3162 µM): 0.453
- relative viability ([2]; first compound 1 µM): 0.433
- relative viability ([4]; first compound 0.03162 µM): 0.94
- relative viability ([4]; first compound 0.1 µM): 0.905
- relative viability ([4]; first compound 0.3162 µM): 0.861
- relative viability ([4]; first compound 1 µM): 0.986
